Data as given in publication PMC8329300, “X-ray crystallography reveals molecular recognition mechanism for sugar binding in a melibiose transporter MelB” (Communications Biology, 2021).
Values joined by “and” are separate entries in the source; they are usually repeats but may differ in a detail not shown here. Identical values can stand only once.

Assays:
D59C MelBSt = biological target: T1, D59C MelBSt (Salmonella typhimurium, UniProt P30878, D59C); test: Trp→dansyl galactoside (D2G) FRET time trace and IC50 of D2G displacement (D59C); format: binding
T1 construct: Cys scanning mutagenesis for the full-length MelBSt; His10 (C); made in house; host or cells: E. coli DW2
T1 sequence (P30878 whole entry D59C): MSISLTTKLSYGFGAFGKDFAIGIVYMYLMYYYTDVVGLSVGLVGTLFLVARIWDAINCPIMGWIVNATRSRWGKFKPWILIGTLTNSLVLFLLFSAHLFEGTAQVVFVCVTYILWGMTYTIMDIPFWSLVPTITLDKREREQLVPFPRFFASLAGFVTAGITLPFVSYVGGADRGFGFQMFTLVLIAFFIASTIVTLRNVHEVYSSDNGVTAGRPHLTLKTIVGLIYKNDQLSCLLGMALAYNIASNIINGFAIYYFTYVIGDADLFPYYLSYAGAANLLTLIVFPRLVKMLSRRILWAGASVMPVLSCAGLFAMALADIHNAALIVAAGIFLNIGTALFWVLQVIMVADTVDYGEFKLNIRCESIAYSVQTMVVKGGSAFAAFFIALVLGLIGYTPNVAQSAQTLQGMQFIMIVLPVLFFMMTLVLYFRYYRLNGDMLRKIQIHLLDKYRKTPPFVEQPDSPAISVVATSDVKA
Procedure: Fig. 1 Functional characterizations. a [^3H] Melibiose transport time course with intact cells. […] Inset, melibiose fermentation assay. Transformants with DW2 strain were plated on MacConkey agar plates containing 30 mM melibiose as the sole carbohydrate source and pH sensor neutral red, and incubated at 37 °C for 16–18 h before imaging. Number of tests = 3, from different batch of cells or duplicate measurements from same batch of sample. b Ligand binding by Trp→dansyl galactoside (D^2G) FRET assay. Purified proteins at 1 μM concentration in 20 mM Tris-HCl, pH 7.5, 100 mM CholCl, 10% glycerol, and 0.03% UDM were subjected to steady-state fluorescence measurements as described in Methods. On the time-trace, 1.8 μL of 1 mM D^2G at 10 μM was added into 180 μL of protein solutions at 1-min point, followed by supplying 10 μL of 5 mM DDMB or 5 mM α-NPG to displace the bound D^2G. For testing Na^+ or Li^+ binding, they are added into the solution before displacement with the second sugar. The structure of DDMB or α-NPG is shown in a chair form, and the carbon positions are labeled. Glycosidic bonds are indicated by arrows. Both are α-galactosides containing a substituent at the anomeric carbon-1. The data were from duplicate measurements.
Steady-state fluorescence measurements were performed with an AMINCO-Bowman series 2 spectrometer with purified MelBSt at 1 μM in 20 mM Tris-HCl, pH 7.5, 100 mM CholCl, 10% glycerol, 0.03% UDM. Using an excitation wavelength at 290 nm, the emission intensity was recorded at 490 nm. On a time-trace, D^2G, NaCl or LiCl, then DDMB or α-NPG, were sequentially added into the protein solutions at a 1 min-interval. […] An identical volume of water was used for the control. The decrease in intensity after each addition of DDMB or α-NPG was corrected by the dilution effect and plotted as a function of the accumulated α-NPG concentrations or estimated DDMB concentrations. The 50% inhibitory concentration (IC50) was determined by fitting a hyperbolic function to the data (OriginPro 2020b). The final concentration of each detergent is estimated to be 234 μM, which is less than their CMC value for (DDMB, 295 μM).
Supplementary Figure 2. Determination of DDMB binding affinity to MelBSt. (a) Titration with DDMB or a-NPG. MelBSt in 20 mM Tris-HCl, pH 7.5, 100 mM CholCl, 10% glycerol, 0.03% UDM without (1) or with 100 mM NaCl (2) were added with D2G at 10 μM at 1-min time point as indicated by triangle symbols on the Trp®dansyl FRET time trace. Starting at the 2-min of time point, DDMB or a-NPG solution was supplemented consecutively at a 1-min interval into MelBSt solution till no change in fluorescence intensity reached as indicated in star symbols. DDM and UDM were used as negative controls. 1% DDM or UDM was titrated into the mixture, The […]
At 2-min time point, additions of galactosides were colored in pink, a-NPG in yellow, UDM in blue, DDM in light blue, water in gray traces, respectively. (b) IC50 determination. The intensity decrease at each titration were corrected by the dilution effect, and plotted as a function of the accumulated DDMB or α-NPG concentration. The 50% inhibitory concentration (IC50) was determined by fitting the data to a hyperbolic function (OriginPro 2020b). Results are presented in […]
(1 picture or pasted object on this page, not shown here)

WT MelBSt = biological target: T2, WT MelBSt (Salmonella typhimurium, UniProt P30878); conditions: cited from earlier work
T2 construct: Cys scanning mutagenesis for the full-length MelBSt; His10 (C); made in house; host or cells: E. coli DW2
T2 sequence (P30878 whole entry): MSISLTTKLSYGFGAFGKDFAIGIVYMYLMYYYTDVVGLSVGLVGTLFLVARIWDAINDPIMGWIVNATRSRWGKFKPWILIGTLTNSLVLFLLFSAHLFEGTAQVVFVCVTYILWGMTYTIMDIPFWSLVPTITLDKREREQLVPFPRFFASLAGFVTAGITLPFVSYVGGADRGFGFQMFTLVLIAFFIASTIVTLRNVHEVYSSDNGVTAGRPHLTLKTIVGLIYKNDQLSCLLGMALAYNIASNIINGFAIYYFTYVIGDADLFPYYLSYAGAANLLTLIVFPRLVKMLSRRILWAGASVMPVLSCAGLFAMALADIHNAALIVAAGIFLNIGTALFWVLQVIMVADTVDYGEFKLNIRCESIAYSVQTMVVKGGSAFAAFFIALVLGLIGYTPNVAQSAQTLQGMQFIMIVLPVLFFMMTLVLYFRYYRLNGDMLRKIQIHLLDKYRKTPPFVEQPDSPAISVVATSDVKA

## CN(C)c1cccc2c(S(=O)(=O)NCCS[C@@H]3O[C@H](CO)[C@H](O)[C@H](O)[C@H]3O)cccc12 [D^2G, 2′-(N-dansyl)aminoalkyl-1-thio-β-D-galactopyranoside]
D59C MelBSt; D59C MelBSt mutant H+, Time 1.58333
  Trp to D2G FRET signal, Test: 1.236 and 1.275
D59C MelBSt; D59C MelBSt mutant H+, Time 1.6
  Trp to D2G FRET signal, Test: 1.234 and 1.287
D59C MelBSt; D59C MelBSt mutant H+, Time 1.61667
  Trp to D2G FRET signal, Test: 1.243 and 1.289
D59C MelBSt; D59C MelBSt mutant H+, Time 1.63333
  Trp to D2G FRET signal, Test: 1.234 and 1.283
D59C MelBSt; D59C MelBSt mutant H+, Time 1.65
  Trp to D2G FRET signal, Test: 1.232 and 1.292
D59C MelBSt; D59C MelBSt mutant H+, Time 1.66667
  Trp to D2G FRET signal, Test: 1.262 and 1.286
D59C MelBSt; D59C MelBSt mutant H+, Time 1.68333
  Trp to D2G FRET signal, Test: 1.239 and 1.271
D59C MelBSt; D59C MelBSt mutant H+, Time 1.7
  Trp to D2G FRET signal, Test: 1.251 and 1.2854
D59C MelBSt; D59C MelBSt mutant H+, Time 1.71667
  Trp to D2G FRET signal, Test: 1.228 and 1.2851
D59C MelBSt; D59C MelBSt mutant H+, Time 1.73333
  Trp to D2G FRET signal, Test: 1.233 and 1.277
D59C MelBSt; D59C MelBSt mutant H+, Time 1.75
  Trp to D2G FRET signal, Test: 1.255 and 1.269
D59C MelBSt; D59C MelBSt mutant H+, Time 1.76667
  Trp to D2G FRET signal, Test: 1.25 and 1.265
D59C MelBSt; D59C MelBSt mutant H+, Time 1.78333
  Trp to D2G FRET signal, Test: 1.239 and 1.277
D59C MelBSt; D59C MelBSt mutant Li+, Time 1.58333
  Trp to D2G FRET signal, Test: 1.183 and 1.18 and 1.353
D59C MelBSt; D59C MelBSt mutant Li+, Time 1.6
  Trp to D2G FRET signal, Test: 1.194 and 1.191 and 1.312
D59C MelBSt; D59C MelBSt mutant Li+, Time 1.61667
  Trp to D2G FRET signal, Test: 1.182 and 1.19 and 1.349
D59C MelBSt; D59C MelBSt mutant Li+, Time 1.63333
  Trp to D2G FRET signal, Test: 1.194 and 1.172 and 1.325
D59C MelBSt; D59C MelBSt mutant Li+, Time 1.65
  Trp to D2G FRET signal, Test: 1.192 and 1.191 and 1.377
D59C MelBSt; D59C MelBSt mutant Li+, Time 1.66667
  Trp to D2G FRET signal, Test: 1.194 and 1.178 and 1.324
D59C MelBSt; D59C MelBSt mutant Li+, Time 1.68333
  Trp to D2G FRET signal, Test: 1.1972 and 1.188 and 1.334
D59C MelBSt; D59C MelBSt mutant Li+, Time 1.7
  Trp to D2G FRET signal, Test: 1.181 and 1.193 and 1.331
D59C MelBSt; D59C MelBSt mutant Li+, Time 1.71667
  Trp to D2G FRET signal, Test: 1.193 and 1.183 and 1.334
D59C MelBSt; D59C MelBSt mutant Li+, Time 1.73333
  Trp to D2G FRET signal, Test: 1.188 and 1.175 and 1.3208
D59C MelBSt; D59C MelBSt mutant Li+, Time 1.75
  Trp to D2G FRET signal, Test: 1.1972 and 1.183 and 1.3266
D59C MelBSt; D59C MelBSt mutant Li+, Time 1.76667
  Trp to D2G FRET signal, Test: 1.189 and 1.172 and 1.31
D59C MelBSt; D59C MelBSt mutant Na+, Time 1.58333
  Trp to D2G FRET signal, Test: 1.29 and 1.292 and 1.375
D59C MelBSt; D59C MelBSt mutant Na+, Time 1.6
  Trp to D2G FRET signal, Test: 1.287 and 1.293 and 1.38
D59C MelBSt; D59C MelBSt mutant Na+, Time 1.61667
  Trp to D2G FRET signal, Test: 1.293 and 1.2915 and 1.362
D59C MelBSt; D59C MelBSt mutant Na+, Time 1.63333
  Trp to D2G FRET signal, Test: 1.299 and 1.278 and 1.358
D59C MelBSt; D59C MelBSt mutant Na+, Time 1.65
  Trp to D2G FRET signal, Test: 1.272 and 1.269 and 1.372
D59C MelBSt; D59C MelBSt mutant Na+, Time 1.66667
  Trp to D2G FRET signal, Test: 1.295 and 1.266 and 1.37
D59C MelBSt; D59C MelBSt mutant Na+, Time 1.68333
  Trp to D2G FRET signal, Test: 1.287 and 1.289 and 1.378
D59C MelBSt; D59C MelBSt mutant Na+, Time 1.7
  Trp to D2G FRET signal, Test: 1.301 and 1.273 and 1.365
D59C MelBSt; D59C MelBSt mutant Na+, Time 1.71667
  Trp to D2G FRET signal, Test: 1.2912 and 1.279 and 1.361
D59C MelBSt; D59C MelBSt mutant Na+, Time 1.73333
  Trp to D2G FRET signal, Test: 1.293 and 1.29 and 1.3441
D59C MelBSt; D59C MelBSt mutant Na+, Time 1.75
  Trp to D2G FRET signal, Test: 1.291 and 1.287 and 1.358
D59C MelBSt; D59C MelBSt mutant Na+, Time 1.76667
  Trp to D2G FRET signal, Test: 1.307 and 1.279 and 1.387
D59C MelBSt; D59C MelBSt mutant Na+, Time 1.78333
  Trp to D2G FRET signal, Test: 1.304 and 1.264
WT MelBSt
  Kd: 10 µM
